Measured values from patent US20240279278A1, “NMU RECEPTOR 2 AGONISTS” (Boehringer Ingelheim International GmbH, priority 2023, published 2024).
Residues, ends and D or L forms follow the SMILES beside them.

Assays:
Type in all cases: cell-based
human NMUR2 receptor [1] = molecular target: T1, human NMUR2 receptor (Homo sapiens, UniProt Q9GZQ4); experiment: IP1 Gq HTRF assay, activation of human NMUR2 in buffer; design: expressed in transfected cells; host or cells: CHO-K1; settings: CHO-K1 cells expressing human NMUR2, stimulation buffer with 0.1% BSA; read-out: EC50 (hNMUR2) buffer
T1 sequence (Q9GZQ4 whole entry): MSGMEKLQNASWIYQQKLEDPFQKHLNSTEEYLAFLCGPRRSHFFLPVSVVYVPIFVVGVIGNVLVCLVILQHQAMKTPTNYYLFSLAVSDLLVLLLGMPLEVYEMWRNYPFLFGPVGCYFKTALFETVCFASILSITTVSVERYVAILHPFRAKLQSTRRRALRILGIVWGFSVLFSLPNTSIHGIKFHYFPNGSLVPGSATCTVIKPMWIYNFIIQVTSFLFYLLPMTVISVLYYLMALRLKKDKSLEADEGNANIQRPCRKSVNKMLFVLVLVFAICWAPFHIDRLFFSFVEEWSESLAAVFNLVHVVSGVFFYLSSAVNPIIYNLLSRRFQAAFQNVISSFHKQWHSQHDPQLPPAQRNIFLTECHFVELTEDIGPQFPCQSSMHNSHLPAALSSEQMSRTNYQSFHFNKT
In short: (§1)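 IP-One HTRF competition (665/620 nm ratio) read after 1 h agonist exposure at 37 °C in pH 7.4 HEPES/HBSS stimulation buffer containing 50 mM LiCl, 0.1% BSA, 1% DMSO. Cells: CHO-K1 stably expressing human NMUR2 or NMUR1. EC50 by 4-parameter nonlinear regression of 8-point curves.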

human NMUR2 receptor [2] = molecular target: T1, human NMUR2 receptor; experiment: IP1 Gq HTRF assay, activation of human NMUR2 in human plasma; design: expressed in transfected cells; host or cells: CHO-K1; settings: CHO-K1 cells expressing human NMUR2, 100% human plasma; read-out: EC50 (hNMUR2) human plasma
In short: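 EC50 obtained via 4-parameter sigmoidal regression of HTRF IP-One signal (665 nm/620 nm), which falls as intracellular IP1 rises. Stimulation: 1 h, 37° C, peptides in human plasma plus 50 mM LiCl, 1% DMSO final, on NMUR2-expressing CHO-K1 cells, 8 concentrations.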

human NMUR1 receptor = molecular target: T2, human NMUR1 receptor (Homo sapiens, UniProt Q9HB89); experiment: IP1 Gq HTRF assay, activation of human NMUR1 in buffer; settings: CHO-K1 cells expressing human NMUR1, stimulation buffer with 0.1% BSA; read-out: EC50 (hNMUR1) buffer
T2 construct: expressed in transfected cells; host or cells: CHO-K1
T2 sequence (Q9HB89 1-426): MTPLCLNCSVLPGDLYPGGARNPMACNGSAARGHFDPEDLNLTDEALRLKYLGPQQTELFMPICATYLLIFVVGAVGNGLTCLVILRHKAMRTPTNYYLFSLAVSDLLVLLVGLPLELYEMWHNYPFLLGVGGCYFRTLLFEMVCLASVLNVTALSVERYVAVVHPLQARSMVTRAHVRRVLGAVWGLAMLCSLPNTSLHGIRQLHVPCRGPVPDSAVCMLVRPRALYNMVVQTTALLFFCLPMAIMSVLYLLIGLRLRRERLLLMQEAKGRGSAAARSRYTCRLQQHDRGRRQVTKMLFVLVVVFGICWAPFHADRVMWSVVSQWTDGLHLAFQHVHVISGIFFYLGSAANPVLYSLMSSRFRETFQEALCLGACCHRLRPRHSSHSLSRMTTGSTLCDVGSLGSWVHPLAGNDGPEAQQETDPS
In short: as §1

Molecule CCCC[C@H](NC(=O)[C@H](CC(C)C)N(C)C(=O)[C@H](Cc1ccccc1)NC(=O)[C@H](Cc1ccc(O)cc1)NC(=O)CN1CCN(CCNC(=O)CN(C)C(=O)CN(C)C(=O)CN(C)C(=O)CN(C)C(=O)CN(C)C(=O)CN(C)C(=O)CN(C)C(=O)CN(C)C(=O)CN(C)C(=O)CC[C@H](NC(=O)CC[C@H](NC(=O)CC[C@H](NC(=O)CCCCCCCCCCCCCCCCCCC(=O)O)C(=O)O)C(=O)O)C(=O)O)CC1)C(=O)N[C@@H](CCN)C(=O)N(C)[C@@H](C)C(=O)N[C@@H](CCCNC(=N)N)C(=O)NCC(N)=O [Compound 61, C20DA-gGlu3-Sar9-AEPipAc-Tyr-Phe-NMeLeu-Nle-Dbu-NMeAla-Arg-Gly-NH2] (HELM PEPTIDE1{[O=C(O)CCCCCCCCCCCCCCCCCCC(=O)[*:2]].[gGlu].[gGlu].[gGlu].[Sar].[Sar].[Sar].[Sar].[Sar].[Sar].[Sar].[Sar].[Sar].[O=C(CN1CCN(CCN[*:1])CC1)[*:2]].Y.F.[meL].[Nle].[Dab].[meA].R.G.[am]}$$$$V2.0) has an EC50 (human NMUR2 receptor [1]) of 4.6 nM, an EC50 (human NMUR2 receptor [2]) of 14.1 nM and an EC50 (human NMUR1 receptor) greater than 1000 nM.

For CCCC[C@H](NC(=O)[C@H](CC(C)C)N(C)C(=O)[C@H](Cc1ccccc1)NC(=O)[C@H](Cc1ccc(O)cc1)NC(=O)CN1CCN(CCNC(=O)CN(C)C(=O)CN(C)C(=O)CN(C)C(=O)CN(C)C(=O)CN(C)C(=O)CN(C)C(=O)CN(C)C(=O)CN(C)C(=O)CN(C)C(=O)CC[C@H](NC(=O)CC[C@H](NC(=O)CC[C@H](NC(=O)CCCCCCCCCCCCCCCCCCC(=O)O)C(=O)O)C(=O)O)C(=O)O)CC1)C(=O)N[C@@H](CCCNC(=N)N)C(=O)N(C)[C@@H](C)C(=O)N[C@@H](CCCNC(=N)N)C(=O)NCC(N)=O [Compound 62, C20DA-gGlu3-Sar9-AEPipAc-Tyr-Phe-NMeLeu-Nle-Arg-NMeAla-Arg-Gly-NH2] (HELM PEPTIDE1{[O=C(O)CCCCCCCCCCCCCCCCCCC(=O)[*:2]].[gGlu].[gGlu].[gGlu].[Sar].[Sar].[Sar].[Sar].[Sar].[Sar].[Sar].[Sar].[Sar].[O=C(CN1CCN(CCN[*:1])CC1)[*:2]].Y.F.[meL].[Nle].R.[meA].R.G.[am]}$$$$V2.0), the EC50 (human NMUR2 receptor [1]) was 3.1 nM, the EC50 (human NMUR2 receptor [2]) was 14.2 nM and the EC50 (human NMUR1 receptor) was 440 nM.

With CCCC[C@H](NC(=O)[C@H](CC(C)C)N(C)C(=O)[C@H](Cc1ccccc1)NC(=O)[C@H](Cc1ccc(O)cc1)NC(=O)CN1CCN(CCNC(=O)CN(C)C(=O)CN(C)C(=O)CN(C)C(=O)CN(C)C(=O)CN(C)C(=O)CN(C)C(=O)CC[C@H](NC(=O)CC[C@H](NC(=O)CCCCCCCCCCCCCCCCC(=O)O)C(=O)O)C(=O)O)CC1)C(=O)N[C@@H](CCCNC(=N)N)C(=O)N1CCC[C@H]1C(=O)N[C@@H](CCCNC(=N)N)C(=O)NCC(N)=O [Compound 71, C18DA-gGlu2-Sar6-AEPipAc-Tyr-Phe-NMeLeu-Nle-Arg-Pro-Arg-Gly-NH2] (HELM PEPTIDE1{[O=C(O)CCCCCCCCCCCCCCCCC(=O)[*:2]].[gGlu].[gGlu].[Sar].[Sar].[Sar].[Sar].[Sar].[Sar].[O=C(CN1CCN(CCN[*:1])CC1)[*:2]].Y.F.[meL].[Nle].R.P.R.G.[am]}$$$$V2.0) the EC50 (human NMUR2 receptor [1]) was 1.5 nM, the EC50 (human NMUR2 receptor [2]) was 14.5 nM and the EC50 (human NMUR1 receptor) was 130 nM.

CCCC[C@H](NC(=O)[C@H](CC(C)C)N(C)C(=O)[C@H](Cc1ccccc1)NC(=O)[C@H](Cc1ccc(O)cc1)NC(=O)CN1CCN(CCNC(=O)CN(C)C(=O)CN(C)C(=O)CN(C)C(=O)CN(C)C(=O)CN(C)C(=O)CN(C)C(=O)CN(C)C(=O)CN(C)C(=O)CN(C)C(=O)CC[C@H](NC(=O)CC[C@H](NC(=O)CC[C@H](NC(=O)CCCCCCCCCCCCCCCCC(=O)O)C(=O)O)C(=O)O)C(=O)O)CC1)C(=O)N[C@@H](CCCNC(=N)N)C(=O)N(C)[C@@H](C)C(=O)N[C@@H](CCCNC(=N)N)C(=O)NCC(N)=O [Compound 73, C18DA-gGlu3-Sar9-AEPipAc-Tyr-Phe-NMeLeu-Nle-Arg-NMeAla-Arg-Gly-NH2] (HELM PEPTIDE1{[O=C(O)CCCCCCCCCCCCCCCCC(=O)[*:2]].[gGlu].[gGlu].[gGlu].[Sar].[Sar].[Sar].[Sar].[Sar].[Sar].[Sar].[Sar].[Sar].[O=C(CN1CCN(CCN[*:1])CC1)[*:2]].Y.F.[meL].[Nle].R.[meA].R.G.[am]}$$$$V2.0) showed an EC50 (human NMUR2 receptor [1]) of 1.9 nM, an EC50 (human NMUR2 receptor [2]) of 15.6 nM and an EC50 (human NMUR1 receptor) of 540 nM.

In the case of CCCC[C@H](NC(=O)[C@H](CC(C)C)N(C)C(=O)[C@H](Cc1ccccc1)NC(=O)[C@H](Cc1ccc(O)cc1)NC(=O)CN1CCN(C(=O)CN(C)C(=O)CN(C)C(=O)CN(C)C(=O)CN(C)C(=O)CN(C)C(=O)CN(C)C(=O)CN(C)C(=O)CN(C)C(=O)CN(C)C(=O)CN(C)C(=O)CN(C)C(=O)CN(C)C(=O)CN(C)C(=O)CN(C)C(=O)CN(C)C(=O)CC[C@H](NC(=O)CC[C@H](NC(=O)CC[C@H](NC(=O)CCCCCCCCCCCCCCCCC(=O)O)C(=O)O)C(=O)O)C(=O)O)CC1)C(=O)N[C@@H](CCCNC(=N)N)C(=O)N1CCC[C@H]1C(=O)N[C@@H](CCCNC(=N)N)C(=O)NCC(N)=O [Compound 75, C18DA-gGlu3-Sar15-PipAc-Tyr-Phe-NMeLeu-Nle-Arg-Pro-Arg-Gly-NH2] (HELM PEPTIDE1{[O=C(O)CCCCCCCCCCCCCCCCC(=O)[*:2]].[gGlu].[gGlu].[gGlu].[Sar].[Sar].[Sar].[Sar].[Sar].[Sar].[Sar].[Sar].[Sar].[Sar].[Sar].[Sar].[Sar].[Sar].[Sar].[O=C(CN1CCN([*:1])CC1)[*:2]].Y.F.[meL].[Nle].R.P.R.G.[am]}$$$$V2.0), the EC50 (human NMUR2 receptor [1]) is reported as 0.7 nM, the EC50 (human NMUR2 receptor [2]) is reported as 3.5 nM and the EC50 (human NMUR1 receptor) is reported as 130 nM.

Molecule CCCC[C@H](NC(=O)[C@H](CC(C)C)N(C)C(=O)[C@H](Cc1ccccc1)NC(=O)[C@H](Cc1ccc(O)cc1)NC(=O)CN1CCN(C(=O)CN(C)C(=O)CN(C)C(=O)CN(C)C(=O)CN(C)C(=O)CN(C)C(=O)CN(C)C(=O)CN(C)C(=O)CN(C)C(=O)CN(C)C(=O)CN(C)C(=O)CN(C)C(=O)CN(C)C(=O)CN(C)C(=O)CN(C)C(=O)CN(C)C(=O)CC[C@H](NC(=O)CC[C@H](NC(=O)CC[C@H](NC(=O)CCCCCCCCCCCCCCCCC(=O)O)C(=O)O)C(=O)O)C(=O)O)CC1)C(=O)N[C@@H](CCN)C(=O)N1CCC[C@H]1C(=O)N[C@@H](CCCNC(=N)N)C(=O)NCC(N)=O [Compound 76, C18DA-gGlu3-Sar15-PipAc-Tyr-Phe-NMeLeu-Nle-Dbu-Pro-Arg-Gly-NH2] (HELM PEPTIDE1{[O=C(O)CCCCCCCCCCCCCCCCC(=O)[*:2]].[gGlu].[gGlu].[gGlu].[Sar].[Sar].[Sar].[Sar].[Sar].[Sar].[Sar].[Sar].[Sar].[Sar].[Sar].[Sar].[Sar].[Sar].[Sar].[O=C(CN1CCN([*:1])CC1)[*:2]].Y.F.[meL].[Nle].[Dab].P.R.G.[am]}$$$$V2.0) has an EC50 (human NMUR2 receptor [1]) of 1.1 nM, an EC50 (human NMUR2 receptor [2]) of 6.2 nM and an EC50 (human NMUR1 receptor) of 1100 nM.
